{"source": "patent US5602101A", "about": "“Antithrombotic agents” (priority 1994, dated 1997)", "key": {"Human Plasma [1]": {"test_system": "Human Plasma", "assay": "Anticoagulation in human plasma, prothrombin time (PT)", "assay_type": "biochemical", "settings": "concentration required to double the PT", "summary_of_the_method": "(§1)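 Compounds were added to human plasma over a range of concentrations. PT used Thromboplastin-C reagent with saline; APTT used a 120-second Actin preincubation followed by 0.02M CaCl2, and TT used bovine thrombin. Clotting times were read on a CoAScreener, and the concentration doubling clotting time was estimated by linear extrapolation.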"}, "human thrombin": {"target": "T1, human thrombin (Homo sapiens, UniProt P00734)", "T1 construct": "purified human thrombin Enzyme Research Laboratories, South Bend, Ind; purchased Enzyme Research Laboratories, South Bend, Ind", "assay": "Inhibition of amidase activity of thrombin (chromogenic substrate), Kass", "assay_type": "biochemical", "settings": "substrate N-benzoyl-Phe-Val-Arg-p-nitroanilide, pH 7.4", "summary_of_the_method": "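Human thrombin (8 NIH units/ml solution) with compound in 0.03M Tris, 0.15M NaCl, pH 7.4; chromogenic substrate hydrolysis followed at 405 nm. Free thrombin from standard curves gives bound enzyme and free inhibitor; Kass, an association equilibrium constant in L/mol, averaged over a compound concentration range.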"}, "factor Xa": {"target": "T2, factor Xa (Homo sapiens, UniProt P00742)", "T2 construct": "Human factors X, Xa, IXa, XIa, and xIIa are purchased from Enzyme Research Laboratories; purchased Enzyme Research Laboratories, South Bend, Ind", "T2 sequence (P00742 235-488 limits assumed)": "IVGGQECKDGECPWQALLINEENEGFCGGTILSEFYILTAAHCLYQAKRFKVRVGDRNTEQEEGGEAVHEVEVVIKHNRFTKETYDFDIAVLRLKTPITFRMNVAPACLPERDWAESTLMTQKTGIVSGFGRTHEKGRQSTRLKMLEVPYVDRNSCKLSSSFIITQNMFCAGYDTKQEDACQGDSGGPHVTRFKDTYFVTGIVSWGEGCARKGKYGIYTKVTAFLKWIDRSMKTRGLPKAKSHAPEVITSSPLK", "T2 sequence (P00742 41-179 partner limits assumed)": "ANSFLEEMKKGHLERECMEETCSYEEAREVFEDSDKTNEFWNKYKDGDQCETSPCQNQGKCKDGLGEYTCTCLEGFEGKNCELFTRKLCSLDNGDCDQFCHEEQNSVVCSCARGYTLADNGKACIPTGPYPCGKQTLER", "assay": "Serine protease inhibition, factor Xa (chromogenic substrate), Kass", "assay_type": "biochemical", "settings": "substrate N-Benzoyl-Ile-Glu-Gly-Arg-p-nitroanilide", "summary_of_the_method": "(§2)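 Enzyme mixed with test compound in 0.03M Tris, 0.15M NaCl, pH 7.4, then p-nitroanilide substrate added (Bz-Ile-Glu-Gly-Arg-pNA for factor Xa; Bz-Phe-Val-Arg-pNA for trypsin; H-D-Ile-Pro-Arg-pNA for t-PA; H-D-Val-Leu-Lys-pNA for plasmin); hydrolysis followed at 405 nm. Free enzyme from standard curves gave bound enzyme and free inhibitor; Kass (L/mol) averaged over several compound concentrations.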"}, "Human Plasma [2]": {"test_system": "Human Plasma", "assay": "Anticoagulation in human plasma, thrombin time (TT)", "assay_type": "biochemical", "settings": "concentration required to double the thrombin time", "summary_of_the_method": "as §1"}, "[3]": {"target": "T3, tissue plasminogen activator (t-PA) (Homo sapiens, UniProt P00750)", "T3 construct": "purchased American Diagnostics, Greenwich, Conn", "T3 sequence (P00750 36-562)": "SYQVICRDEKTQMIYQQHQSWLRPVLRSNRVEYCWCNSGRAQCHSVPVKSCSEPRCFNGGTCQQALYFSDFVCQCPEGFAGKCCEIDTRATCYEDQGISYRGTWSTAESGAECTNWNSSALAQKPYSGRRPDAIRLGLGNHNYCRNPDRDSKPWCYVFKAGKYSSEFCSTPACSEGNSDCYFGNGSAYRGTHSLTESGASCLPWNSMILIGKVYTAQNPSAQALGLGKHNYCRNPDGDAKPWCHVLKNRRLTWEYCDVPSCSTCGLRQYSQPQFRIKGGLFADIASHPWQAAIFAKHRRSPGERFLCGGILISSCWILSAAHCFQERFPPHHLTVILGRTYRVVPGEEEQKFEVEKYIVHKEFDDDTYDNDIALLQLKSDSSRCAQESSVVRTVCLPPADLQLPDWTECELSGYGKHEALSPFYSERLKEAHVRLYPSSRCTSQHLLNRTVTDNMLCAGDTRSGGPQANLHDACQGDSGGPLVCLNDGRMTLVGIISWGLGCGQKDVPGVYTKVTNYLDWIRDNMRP", "assay": "Serine protease inhibition, t-PA (chromogenic substrate), Kass", "assay_type": "biochemical", "settings": "for Enzyme Kass, t-Pa: substrate H-D-Ile-Pro-Arg-p-nitroanilide", "summary_of_the_method": "as §2"}, "Human Plasma [4]": {"test_system": "Human Plasma", "assay": "Anticoagulation in human plasma, activated partial thromboplastin time (APTT)", "assay_type": "biochemical", "settings": "concentration required to double the APTT", "summary_of_the_method": "as §1"}, "Bovine trypsin": {"target": "T4, Bovine trypsin (Bos taurus, UniProt P00760)", "T4 construct": "Bovine trypsin is purchased from Worthington Biochemicals, Freehold, N.J; purchased Worthington Biochemicals, Freehold, N.J", "T4 sequence (P00760 24-246)": "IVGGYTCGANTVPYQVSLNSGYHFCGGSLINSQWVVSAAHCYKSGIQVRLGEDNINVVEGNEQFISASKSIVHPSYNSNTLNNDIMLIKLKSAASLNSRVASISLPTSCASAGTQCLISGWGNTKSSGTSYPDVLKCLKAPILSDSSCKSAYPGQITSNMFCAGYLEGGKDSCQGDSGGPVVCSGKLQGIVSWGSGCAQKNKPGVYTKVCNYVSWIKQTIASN", "assay": "Serine protease inhibition, trypsin (chromogenic substrate), Kass", "assay_type": "biochemical", "settings": "substrate N-Benzoyl-Phe-Val-Arg-p-nitroanilide", "summary_of_the_method": "as §2"}, "[5]": {"settings": "rat, in vivo", "protocol": "(§3) Male Sprague Dawley rats (350-425 gm, Harlan Sprague Dawley Inc., Indianapolis, Ind.) are anesthetized with xylazine (20 mg/kg, s.c.) and ketamine (120 mg/kg, s.c.) and maintained on a heated water blanket (37° C.). The jugular vein(s) is cannulated to allow for infusions.\n(§4) Plasma thrombin time (TT) and activated partial thromboplastin time (APTT) are measured with a fibrometer. Blood is sampled from a jugular catheter and collected in syringe containing sodium citrate (3.8%, 1 part to 9 parts blood). To measure TT, rat plasma (0.1 ml) is mixed with saline (0.1 ml) and bovine thrombin (0.1 ml, 30 U/ml in TRIS buffer; Parke Davis) at 37° C. For APTT, plasma (0.1 ml) and APTT solution (0.1 ml, Organon Teknika are incubated for 5 minutes (37° C.) and CaCl2 (0.01 ml, 0,025M) is added to start coagulation. Assays are done in duplicate and averaged.\n(§5) The time course of the effect of the thrombin inhibitor upon TT is determined after i.v bolus administration to anesthetized rats and after oral treatment of fasted conscious rats. Due to limitations of blood volume and the number of points required to determine the time course from time of treatment to the time when the response returns to pretreatment values, two populations of rats are used. Each sample population represents alternating sequential time points. The average TT over the time course is used to calculate area under the curve (AUC). The index of bioavailability is calculated by the formula shown below and is expressed as percent relative activity.\n(§6) The area under the curve (AUC) of the plasma TT time course is determined and adjusted for the dose. This index of bioavailability is termed \"% Relative Activity\" and is calculated as [formula]\n(§7) Compound solutions are prepared fresh daily in normal saline and are injected as a bolus or are infused starting 15 min before and continuing throughout the experimental perturbation which is 15 minutes in the arteriovenous shunt model and 60 minutes in the FeCl3 model of arterial injury and in the spontaneous thrombolysis model. Bolus injection volume is 1 ml/kg for i.v., and 5 ml/kg for p.o. and infusion volume is 3 ml/hr."}, "Human plasmin": {"target": "T5, Human plasmin (Homo sapiens, UniProt P00747)", "T5 construct": "Human plasmin is purchased from Boehringer Mannheim, Indianapolis, Ind; purchased Boehringer Mannheim, Indianapolis, Ind", "T5 sequence (P00747 581-810 limits assumed)": "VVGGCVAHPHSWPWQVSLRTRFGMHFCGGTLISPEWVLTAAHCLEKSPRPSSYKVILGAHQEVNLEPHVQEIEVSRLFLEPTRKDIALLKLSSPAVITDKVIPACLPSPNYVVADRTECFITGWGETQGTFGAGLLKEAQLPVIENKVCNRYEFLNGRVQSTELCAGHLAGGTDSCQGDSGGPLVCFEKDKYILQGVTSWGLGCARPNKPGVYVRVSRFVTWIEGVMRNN", "T5 sequence (P00747 97-580 partner limits assumed)": "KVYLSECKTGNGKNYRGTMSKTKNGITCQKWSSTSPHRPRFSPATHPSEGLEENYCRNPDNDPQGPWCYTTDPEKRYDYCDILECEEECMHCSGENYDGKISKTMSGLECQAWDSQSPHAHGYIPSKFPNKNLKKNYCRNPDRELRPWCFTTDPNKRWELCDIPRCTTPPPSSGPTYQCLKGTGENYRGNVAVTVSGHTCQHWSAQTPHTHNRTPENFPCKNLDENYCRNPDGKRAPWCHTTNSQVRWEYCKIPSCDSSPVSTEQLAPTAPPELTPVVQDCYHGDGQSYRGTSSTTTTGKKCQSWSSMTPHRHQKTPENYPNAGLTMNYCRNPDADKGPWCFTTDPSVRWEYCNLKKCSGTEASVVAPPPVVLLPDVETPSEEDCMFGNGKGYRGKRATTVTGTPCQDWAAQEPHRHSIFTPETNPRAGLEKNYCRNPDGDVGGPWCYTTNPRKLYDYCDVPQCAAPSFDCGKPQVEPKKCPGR", "assay": "Serine protease inhibition, plasmin (chromogenic substrate), Kass", "assay_type": "biochemical", "settings": "substrate H-D-Val-Leu-Lys-p-nitroanilide", "summary_of_the_method": "as §2"}, "[6]": {"assay": "Index of bioavailability (plasma TT AUC, p.o. vs i.v.)", "settings": "rats, adjusted for dose", "protocol": "as §3, §4, §5, §6, §7"}}, "note": "Where two headings read alike, the source gives them in different places. Non-standard residues stand in square brackets, D forms with d. Residues, ends and D or L forms follow the SMILES beside them. dNMeCha = CN[C@H](CC1CCCCC1)C(=O)O; dCha = N[C@H](CC1CCCCC1)C(=O)O"}
{"smiles": "CN[C@H](CC1CCCCC1)C(=O)N1CCC[C@H]1C(=O)N[C@H](C=O)CCCNC(=N)N.Cl", "note": "[Example 31, Me-D-Cha-Pro-Arg-H.HCl] (H-[dNMeCha]-Pro-Arg-aldehyde)", "values": [{"measurement": "2 × Clotting time, PT", "setting": "Human Plasma [1]", "result": 720, "unit": "ng/mL"}, {"measurement": "Enzyme Kass, Human Thrombin", "setting": "human thrombin", "result": 590, "unit": "L/mol × 10^6"}, {"measurement": "Enzyme Kass, Xa", "setting": "factor Xa", "result": 5.6, "unit": "L/mol × 10^6"}, {"measurement": "2 × Clotting time, TT", "setting": "Human Plasma [2]", "result": 18, "unit": "ng/mL"}, {"measurement": "Enzyme Kass, t-Pa", "setting": "[3]", "result": 0.037, "unit": "L/mol × 10^6"}, {"measurement": "2 × Clotting time, APTT", "setting": "Human Plasma [4]", "result": 420, "unit": "ng/mL"}, {"measurement": "Enzyme Kass, Trypsin", "setting": "Bovine trypsin", "result": 160, "unit": "L/mol × 10^6"}, {"measurement": "Index of Bioavailability, % Relative Activity", "setting": "[5]", "result": 13, "unit": "%"}, {"measurement": "Enzyme Kass, Plasmin", "setting": "Human plasmin", "result": 7.7, "unit": "L/mol × 10^6"}]}
{"smiles": "CCS(=O)(=O)N[C@H](CC1CCCCC1)C(=O)N1CCC[C@H]1C(=O)N[C@H](C=O)CCCNC(=N)N.Cl", "note": "[Example 21, EtSO2 -D-Cha-Pro-Arg-H.HCl]", "values": [{"measurement": "2 × Clotting time, PT", "setting": "Human Plasma [1]", "result": 730, "unit": "ng/mL"}, {"measurement": "Enzyme Kass, Human Thrombin", "setting": "human thrombin", "result": 550, "unit": "L/mol × 10^6"}, {"measurement": "Enzyme Kass, Xa", "setting": "factor Xa", "result": 20, "unit": "L/mol × 10^6"}, {"measurement": "2 × Clotting time, TT", "setting": "Human Plasma [2]", "result": 25, "unit": "ng/mL"}, {"measurement": "Enzyme Kass, t-Pa", "setting": "[3]", "result": 0.73, "unit": "L/mol × 10^6"}, {"measurement": "2 × Clotting time, APTT", "setting": "Human Plasma [4]", "result": 260, "unit": "ng/mL"}, {"measurement": "Enzyme Kass, Trypsin", "setting": "Bovine trypsin", "result": 200, "unit": "L/mol × 10^6"}, {"measurement": "Index of Bioavailability, % Relative Activity", "setting": "[5]", "result": 19, "unit": "%"}, {"measurement": "Enzyme Kass, Plasmin", "setting": "Human plasmin", "result": 45, "unit": "L/mol × 10^6"}]}
{"smiles": "CC(=O)N[C@H](CC1CCCCC1)C(=O)N1CCC[C@H]1C(=O)N[C@H](C=O)CCCNC(=N)N.Cl", "note": "[Example 28, Ac-D-Cha-Pro-Arg-H.HCl] (Ac-[dCha]-Pro-Arg-aldehyde)", "values": [{"measurement": "2 × Clotting time, PT", "setting": "Human Plasma [1]", "result": "3,500 ng/ML"}, {"measurement": "Enzyme Kass, Human Thrombin", "setting": "human thrombin", "result": 26, "unit": "L/mol × 10^6"}, {"measurement": "Enzyme Kass, Xa", "setting": "factor Xa", "result": 1.1, "unit": "L/mol × 10^6"}, {"measurement": "2 × Clotting time, TT", "setting": "Human Plasma [2]", "result": 92, "unit": "ng/mL"}, {"measurement": "Enzyme Kass, t-Pa", "setting": "[3]", "result": 0.035, "unit": "L/mol × 10^6"}, {"measurement": "2 × Clotting time, APTT", "setting": "Human Plasma [4]", "result": "1,900 ng/ML"}, {"measurement": "Enzyme Kass, Trypsin", "setting": "Bovine trypsin", "result": 12, "unit": "L/mol × 10^6"}, {"measurement": "Index of Bioavailability, % Relative Activity", "setting": "[5]", "result": 9, "unit": "%"}, {"measurement": "Enzyme Kass, Plasmin", "setting": "Human plasmin", "result": 0.61, "unit": "L/mol × 10^6"}]}
{"smiles": "Cl.N=C(N)NCCC[C@@H](C=O)NC(=O)[C@@H]1CCCN1C(=O)[C@@H](Cc1ccccc1)NCC1CCCCC1", "note": "[Example 30, cyclohexyl-CH2 -D-phe-pro-Arg-H.HCl]", "values": [{"measurement": "2 × Clotting time, PT", "setting": "Human Plasma [1]", "result": "1,200 ng/ML"}, {"measurement": "Enzyme Kass, Human Thrombin", "setting": "human thrombin", "result": 480, "unit": "L/mol × 10^6"}, {"measurement": "Enzyme Kass, Xa", "setting": "factor Xa", "result": 0.11, "unit": "L/mol × 10^6"}, {"measurement": "2 × Clotting time, TT", "setting": "Human Plasma [2]", "result": 16, "unit": "ng/mL"}, {"measurement": "Enzyme Kass, t-Pa", "setting": "[3]", "result": 0.046, "unit": "L/mol × 10^6"}, {"measurement": "Index of Bioavailability, % Relative Activity", "setting": "[6]", "result": 1, "unit": "%"}, {"measurement": "2 × Clotting time, APTT", "setting": "Human Plasma [4]", "result": 860, "unit": "ng/mL"}, {"measurement": "Enzyme Kass, Trypsin", "setting": "Bovine trypsin", "result": 69, "unit": "L/mol × 10^6"}, {"measurement": "Enzyme Kass, Plasmin", "setting": "Human plasmin", "result": 0.49, "unit": "L/mol × 10^6"}]}
{"smiles": "CCCCS(=O)(=O)N[C@H](Cc1ccccc1)C(=O)N1CCC[C@H]1C(=O)N[C@H](C=O)CCCNC(=N)N.Cl", "note": "[Example 10, n-Bu-SO2 -D-Phe-Pro-Arg-H.HCl]", "values": [{"measurement": "2 × Clotting time, PT", "setting": "Human Plasma [1]", "result": 700, "unit": "ng/mL"}, {"measurement": "Enzyme Kass, Human Thrombin", "setting": "human thrombin", "result": 470, "unit": "L/mol × 10^6"}, {"measurement": "Enzyme Kass, Xa", "setting": "factor Xa", "result": 8.3, "unit": "L/mol × 10^6"}, {"measurement": "2 × Clotting time, TT", "setting": "Human Plasma [2]", "result": 18, "unit": "ng/mL"}, {"measurement": "Enzyme Kass, t-Pa", "setting": "[3]", "result": 0.83, "unit": "L/mol × 10^6"}, {"measurement": "Index of Bioavailability, % Relative Activity", "setting": "[6]", "result": 18, "unit": "%"}, {"measurement": "2 × Clotting time, APTT", "setting": "Human Plasma [4]", "result": 300, "unit": "ng/mL"}, {"measurement": "Enzyme Kass, Trypsin", "setting": "Bovine trypsin", "result": 230, "unit": "L/mol × 10^6"}, {"measurement": "Enzyme Kass, Plasmin", "setting": "Human plasmin", "result": 27, "unit": "L/mol × 10^6"}]}
{"smiles": "CN(C)S(=O)(=O)N[C@H](Cc1ccccc1)C(=O)N1CCC[C@H]1C(=O)N[C@H](C=O)CCCNC(=N)N.Cl", "note": "[Example 12, Me2 NSO2 -D-Phe-Pro-Arg-H.HCl]", "values": [{"measurement": "2 × Clotting time, PT", "setting": "Human Plasma [1]", "result": 480, "unit": "ng/mL"}, {"measurement": "Enzyme Kass, Human Thrombin", "setting": "human thrombin", "result": 300, "unit": "L/mol × 10^6"}, {"measurement": "Enzyme Kass, Xa", "setting": "factor Xa", "result": 3.9, "unit": "L/mol × 10^6"}, {"measurement": "2 × Clotting time, TT", "setting": "Human Plasma [2]", "result": 46, "unit": "ng/mL"}, {"measurement": "t-Pa inhibition", "setting": "[3]; at 13 μg/mL", "result": 100, "unit": "%"}, {"measurement": "Index of Bioavailability, % Relative Activity", "setting": "[6]", "result": 26, "unit": "%"}, {"measurement": "2 × Clotting time, APTT", "setting": "Human Plasma [4]", "result": 360, "unit": "ng/mL"}, {"measurement": "Enzyme Kass, Trypsin", "setting": "Bovine trypsin", "result": 160, "unit": "L/mol × 10^6"}, {"measurement": "Enzyme Kass, Plasmin", "setting": "Human plasmin", "result": 21, "unit": "L/mol × 10^6"}]}
